Values joined by “and” are separate entries in the source; they are usually repeats but may differ in a detail not shown here. Equal values may be shown once.
How the values were obtained:
[1] = effects on testis function: body, testis and seminal vesicle weight; type: in vivo, mice (ICR-Swiss adult male); conditions: average; 0.2 mg per day s.c., 10 days
Method: The compounds as shown in Table 7 were dissolved in a minimal amount of ethanol and diluted in sesame oil (1 mg/ml). After dilution, samples were stored at 5° C in the dark and flushed with N2 every 24 hours. The compounds were injected subcutaneously into adult male mice for a period of 10 days. Each mouse injected received a total dose of 2 mg over the 10 day period or 0.2 mg per day. The mice were random bred males of the ICR-Swiss strain and were used in the study when they reached 75±2 days of age. Mice were maintained in air-conditioned and light-controlled (14 hour light/24 hour) animal quarters and provided with lab food and water ad libitum. Animals were necropsied 24 hours after the last injection. Testes and seminal vesicles were excised, trimmed of adhering tissue and weighed fresh at the nearest one-tenth milligram.

rat testis tubules [2] = assay: glucose oxidation (glucose-U-14C) by rat testis tubules in vitro; type: cell-based; conditions: for AVERAGE glucose oxidation: average of flasks; for depression of glucose oxidation in vitro: in words; for GLUCOSE OXIDATION per 100 mg / GLUCOSE OXIDATION per flask: individual flask, 250 mg per flask (so in the source), 2 hours, 33° C; for % DEVIATION FROM CONTROL, glucose oxidation: versus saline, 120 min
Method: (§1) For these investigations the compounds were diluted in a minimal amount of ethanol and further diluted in saline (0.85%) so that the final concentration was 1 mg/ml. The compounds were placed in solution and gassed under N2 and stored at 5° C until used 2 days later for the in vitro incubation studies. Details of the in vitro incubation procedures may be found in Endocrinology 89:791-800 (1971).
The effects of these compounds on glucose oxidation by testis tubules was examined by incubating about 200 mg of teased testis tubules from mature rats in a 25 ml Erlenmeyer flask containing 3 ml of Krebs Ringer bicarbonate buffer (pH 7.4), D-glucose-U-^14 C (0.5 μCi; 10mM) and 0.25 ml of the azasteroid (1 mg/ml) to be tested. The flasks were incubated for 2 hours at 33° C under 95% O2 :5% CO2. The reaction was terminated by adding 0.25 ml of 5 N H2 SO4. Carbon dioxide was trapped in 0.25 ml of hydroxide of Hyamine. The radioactivity present in the Hyamine was determined by liquid scintillation spectrometry. This table includes a detailed summary of the results obtained and an average for each compound. […] Thus, the compounds have potential for antifertility activity in the control of wild rodent populations and possibly stray animals such as dogs and cats.
CPM = counts per minute. Glucose-U-^14 C activity was 0.5 millicurie.
All compounds were tested in a concentration of 250 mg per flask.

rat testis tubules [3] = assay: lysine-U-14C incorporation into protein by rat testis tubules in vitro; type: cell-based; conditions: for AVERAGE OF TWO FLASK lysine incorporation: average of two flasks; for protein synthesis by teased testis tubules: in words; for lysine incorporation into protein per 100 mg / lysine incorporation into protein per flask: individual flask, 250 mg per flask (so in the source), 1 hour, 33° C
Method: as §1
The effects of the compounds on the incorporation of lysine -U-^14 C into trichloroacetic (TCA) precipitable protein of rat testes was investigated by incubating about 200 mg of teased testis tubules from mature rats in a 25 ml Erlenmeyer flask containing 3 ml of Krebs Ringer bicarbonate buffer (pH 7.4), L-lysine-U-^14 C (0.5 μCi; 0.1mM), glucose (10 mM) and 0.25 ml of the azasteroid to be tested. The flasks were incubated for 1 hour at 33° C under 95% O2 : 5% CO2 and the TCA precipitable protein was isolated and an aliquot used to measure radioactivity.
CPM = counts per minute. All compounds were tested in a concentration of […]

B. subtilis W23 = assay: antimicrobial activity in combination with selected antibiotics; type: cell-based; conditions: alone; B. subtilis W23
Method: Several antibiotics act at the cell surface. The antimicrobial activity of the hydroxybenzindazole in combination with selected antibiotics was measured.
Both Polymyxin (Pfizer, Inc.) and Circulin (Upjohn Co.) are surface active compounds thought to cause disorganization of the cell membrane leading to a loss of intracellular components. The enhanced antimicrobial activity observed with the combination of hydroxybenzindazole and antibiotics denotes a more pronounced distortion in the cell surface. Thus, much lower concentrations of the compounds can be used in medicinal applications providing an opportunity for toxic compounds to have greater medicinal applicability and use.
Failure of the mixture of hydroxybenzindazole and chloramphenicol to show an enhanced inhibition of growth could be correlated with the internal site of action of chloramphenicol, which is blockage of the binding of the 30s and 50s ribosomal subunits.

L-M cells = assay: growth inhibition of mouse L-M cell line; type: cell-based
Method: Cells (1 × 10^5 /ml) were added to the "incubated" compound-containing medium.

KB cells [4] = assay: growth inhibition of human tumor KB cell line; type: cell-based; conditions: 10 μg/ml or greater, read-out: concentration at which growth was inhibited
Method: For example, growth of both the human tumor KB* and the mouse L-M** cell lines was inhibited when the cells were grown in media containing 10 μg/ml or greater

KB cells [5] = assay: relative plating efficiency of KB cells (colony formation, 7 days); type: cell-based, human
Method: The KB cells were plated in plastic tissue culture dishes and grown in a 5% CO2 gas phase incubator for 7 days. The medium was removed, the plates washed with Hanks' salt solution and the cells stained with a 0.5% aqueous crystal violet solution, rinsed and dried. The colonies were counted and the relative plating efficiency calculated using the number of control colonies as 100 percent.

Cells (1 × 10^5 /ml) = assay: potency after pre-incubation of compound in growth medium without cells; type: cell-based; conditions: 4 days
Method: To ascertain if the potency of compound 5d was reduced during the incubation in the growth medium in the absence of cells, compound 5d (20 μg/ml) was added to the medium and incubated at 37° C on a shaker for 4 days. Cells (1 × 10^5 /ml) were added to the "incubated" compound-containing medium. The inhibition pattern obtained from the "incubated" medium was identical to that obtained when compound 5d (20 μg/ml) was added simultaneously with the inoculation. […] Since the compounds are not inactivated by serum, their effectiveness for animal use or human tests is enhanced. This fact is stressed in animal studies recited in Example IX below.

[6] = tested on: acid phosphatase, KB and L-M cells; assay: relative acid phosphatase staining (permeability of lysosomal membrane) of KB and L-M cells; type: cell-based, human (KB) and mouse (L-M); parameters: key to Relative acid phosphatase staining: light: cells showing only a few scattered granules; medium: more dense but distinct isolated granules were still detected; heavy: a more intense staining with fewer discrete granules; conditions: 20 μg/ml
Method: KB and L-M cells were grown on coverslips in medium 199 with 10% calf serum for the 24 hour growth prior to staining in the presence or absence of compound 5c (20 μg/ml) or compound 5d (20 μg/ml). The cells were washed in Hanks' salt solution, incubated at 37° C in Gomori's substrate solution for 1, 2, or 3 hours, washed, treated with a 1% solution of ammonium sulfide, washed, mounted and observed microscopically. Light staining was designated as cells showing only a few scattered granules; medium staining was more dense but distinct isolated granules were still detected; and heavy staining a more intense staining with fewer discrete granules. Heavy staining denotes increased phosphatase activity.
The acid phosphatase activity was measured in KB and L-M cells grown in medium in the presence or absence compound 5c or 5d (20 μg/ml) for 2 or 24 hours prior to staining (Table 2). Quantitative evaluation of the relative staining intensity of the lysosomes was compared in the treated and untreated cells. […] Thus, cells grown in the presence of compound 5c accumulate the phosphatase substrate within the lysosomes much more rapidly than the control or compound 5d treated cells indicating the compounds ability to alter membrane permeability and thus regulate the accumulation of essential metabolites. Control of this cellular capacity permits regulation of cell division so important in cancer chemotherapy. Since the permeation of the substrate is the rate-limiting step in the phosphatase determination, compound 5c produces a modification of the lysosomal membrane which increased the permeability of the lysosome to the substrate. The results also emphasize the difference in biological activity of compound 5c and 5d type molecules which chemically are similar except at C-3. Differences in the biological activity have been observed when the compounds were tested using various bacteria.

Compound | Body Weight [1] | Mg Testes Per g Body Wt. [1] | Seminal Vesicle weight [1] | Testes Paired weight [1] | AVERAGE glucose oxidation (rat testis tubules [2]) | depression of glucose oxidation in vitro (rat testis tubules [2]) | GLUCOSE OXIDATION per 100 mg (rat testis tubules [2]) | GLUCOSE OXIDATION per flask (rat testis tubules [2]) | % DEVIATION FROM CONTROL, glucose oxidation (rat testis tubules [2]) | AVERAGE OF TWO FLASK lysine incorporation (rat testis tubules [3]) | protein synthesis by teased testis tubules (rat testis tubules [3]) | lysine incorporation into protein per 100 mg (rat testis tubules [3]) | lysine incorporation into protein per flask (rat testis tubules [3]) | also measured
CC12CCc3cc(O)ccc3C1=NNC2=O (racemic) [Compound 4c] | 35.7 g | 7.28 Mg per g | 82.1 mg | 261.0 mg | 8,705 CPM/100 mg TISSUE | comparable to saline | 8,847 CPM/100 mg and 8,564 CPM/100 mg | 17,350 CPM/FLASK and 17,325 CPM/FLASK | -19.94% | 1,389 CPM/100 mg tissue | depress protein synthesis | 1,309 CPM/100 mg and 1,470 CPM/100 mg | 2,575 CPM/FLASK and 2,925 CPM/FLASK | –
CC1(C)S[C@@H]2[C@H](NC(=O)Cc3ccccc3)C(=O)N2[C@H]1C(=O)O [penicillin, reference compound] | – | – | – | – | – | – | – | – | – | – | – | – | – | inhibition of growth, tested separately (B. subtilis W23): very slight inhibition of growth
COc1ccc2c3c(ccc2c1)C1=NCCC1(C)CC3 (centres unmarked) [Compound 5d, 1,10,11,11a-tetrahydro-7-methoxy-11a-methyl-2H-naphth[1,2-g]indole] | 32.3 g | 6.32 Mg per g | 67.7 mg | 201.6 mg | 12,140 CPM/100 mg TISSUE | depressed glucose oxidation in vitro more than compounds 4 c and 11b | 16,081 CPM/100 mg and 8,200 CPM/100 mg | 32,194 CPM/FLASK and 16,539 CPM/FLASK | +17.4% | 1,565 CPM/100 mg tissue | depress protein synthesis | 1,585 CPM/100 mg and 1,546 CPM/100 mg | 3,225 CPM/FLASK and 3,125 CPM/FLASK | growth rate versus control (L-M cells; 1 μg/ml): same growth rate as the control; growth inhibition at 20 μg/ml (L-M cells; 20 μg/ml): depressed the growth rate only slightly over the rate observed with 10 μg/ml; inhibition at 10 µg/mL (L-M cells; Mus musculus, 96 h, 10 μg/ml, fourth day, read-out: reduction in growth as compared to the control): 30%; minimal effective concentration (L-M cells; Mus musculus, L-M cells, 10 μg/ml or greater, read-out: concentration at which growth was inhibited): ≥ 10 µg/mL; minimal effective concentration (KB cells [4]): ≥ 10 µg/mL; effect on the relative plating efficiency (KB cells [5]; 1 μg/ml): little effect; inhibition of growth compared with control culture (KB cells [5]; 10 and 20 μg/ml): only a very slight inhibition of growth; activity at 1 µg/mL (KB cells [5]; Homo sapiens, KB, 168 h, 1 μg/ml): 97%; activity at 10 µg/mL (KB cells [5]; Homo sapiens, KB, 168 h, 10 μg/ml): 82%; activity at 20 µg/mL (KB cells [5]; Homo sapiens, KB, 168 h, 20 μg/ml): 79%; inhibition pattern from incubated medium versus simultaneous addition (Cells (1 × 10^5 /ml); 20 μg/ml, medium pre-incubated 37° C): identical; detoxification by auto-oxidation or enzymatic (serum) processes in culture medium (Cells (1 × 10^5 /ml); 37° C): does not occur; Relative acid phosphatase staining ([6]; 24 h, 1 hour in substrate): none and did not stain; Relative acid phosphatase staining ([6]; 24 h, 2 hours in substrate): light; Relative acid phosphatase staining ([6]; 24 h, 3 hours in substrate): medium; staining reaction versus control ([6]; 24 h, all three substrate incubation times): identical staining reactions; staining intensity versus untreated cells ([6]; cells treated for 2 hours): indistinguishable from untreated cells
COc1ccc2c3c(ccc2c1)-c1[nH]ncc1CC3 [Compound 11b, 10,11-Dihydro-7-methoxy-3H-naphth[1,2-g]indazole] | 34.0 g | 6.67 Mg per g | 88.7 mg | 229.0 mg | 9,550 CPM/100 mg TISSUE | comparable to saline | 11,590 CPM/100 mg and 7,510 CPM/100 mg | 23,529 CPM/FLASK and 15,382 CPM/FLASK | – | 1,155 CPM/100 mg tissue | depress protein synthesis | 1,194 CPM/100 mg and 1,116 CPM/100 mg | 2,325 CPM/FLASK and 2,225 CPM/FLASK | –

From patent US3987055A, “Azasteroids compounds and derivatives” (The Board of Regents for the Oklahoma Agricultural & …, priority 1974, dated 1976)
